Assay results as given in US11998619B2, “Compound, antiinflammatory drug comprising the compound and cyclooxygenase-2 inhibitor comprising the compound” (priority 2018, dated 2024).

Columns and labels:
COX-2 [1] = experiment: Western blotting of COX-2 expression after LPS treatment; format: cell-based; conditions: Western blot, FIG. 4
cyclooxygenase-2 (COX-2) = experiment: Western blot of COX-2 in tissue at the cerebral infarction site, MCAO-R model; format: in vivo, Sprague Dawley (SD) rats; conditions: FIG. 5C
[2] = tested on: MCAO-R stroke animal model; experiment: Cerebral infarction in MCAO-R stroke animal model (TTC staining); format: in vivo, Sprague Dawley (SD) rats; conditions: 24 hours after reperfusion; FIG. 5B
COX-2 [3] = experiment: Immunofluorescence of COX-2 in LPS-treated cells; conditions: FIG. 3
Description: Anti-inflammatory properties were evaluated based on in vitro experiments. Specifically, cells were treated with lipopolysaccharide (LPS) as an inflammation-inducing substance, thereby to induce an inflammatory reaction. […] Then, immunofluorescence images thereof were taken to identify COX-2 inhibitory ability thereof in the cells.
The green fluorescence indicates the presence of COX-2 which is induced by an inflammatory reaction in cells via treatment with LPS.

Row | Compound | COX-2 expression inhibition (COX-2 band) (COX-2 [1]) | inhibition of COX-2 protein amount at cerebral infarction site (cyclooxygenase-2 (COX-2)) | inhibition of cerebral infarction [2] | COX-2 inhibitory ability (green fluorescence, COX-2 positive cells) (COX-2 [3])
1 | O=C(O)c1cc(-c2ccc(F)cc2F)ccc1O [diflunisal] | do not achieve COX-2 inhibition effect | exhibit inhibition of COX-2 activity | significantly inhibit the cerebral infarction | slightly lower than that in cells (LPS) treated with only LPS
2 | O=C(O)CCC(=O)c1ccc(-c2ccccc2)cc1 [fenbufen] | do not achieve COX-2 inhibition effect |  |  | 
3 | CC1=C(CC(=O)O)c2cc(F)ccc2/C1=C\c1ccc([S+](C)[O-])cc1 (stereo not shown) [sulindac] | has COX-2 inhibition ability |  |  | excellent COX-2 inhibition ability
